US20100298141A1, “SUBSTITUTED PYRIDINE N-OXIDE HERBICIDES” (E. I. DU PONT DE NEMOURS AND COMPANY, priority 2007, published 2010)

Assays:
[1] = tested on: duck salad; assay: Test C flooded paddy test; assay type: in vivo, Heteranthera limosa; conditions: Flood
How it was run: (§1)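 Compound was added to standing water 3 cm above soil, flood maintained, and plants held in a greenhouse before visual scoring against controls at 13 to 15 days.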

[2] = tested on: velvetleaf; assay: Test A pre-/postemergence greenhouse test; assay type: in vivo, Abutilon theophrasti; conditions: for Velvetleaf plant response rating: 0 to 100 scale
How it was run: (§2)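 Test compounds in non-phytotoxic solvent with surfactant were applied as a preemergence soil spray to seeded loam/sand pots and, concurrently, postemergence to plants at 2–10 cm, one- to two-leaf stage. About ten days in greenhouse, then injury visually rated against untreated controls.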

[3] = tested on: redroot pigweed; assay: Test A pre-/postemergence greenhouse test; assay type: in vivo, Amaranthus retroflexus; conditions: for Pigweed plant response rating: 0 to 100 scale
How it was run: as §2

[4] = tested on: giant foxtail; assay: Test C pre-/postemergence test; assay type: in vivo, Setaria faberii
How it was run: (§3)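 Test chemicals were formulated with surfactant in a non-phytotoxic solvent and sprayed both on freshly planted seeds (preemergence) and on 1- to 4-leaf plants of 2–18 cm (postemergence). Flooded-paddy pots received compound directly into 3 cm of standing water, maintained for the test.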

[5] = tested on: yellow nutsedge; assay: Test C pre-/postemergence test; assay type: in vivo, Cyperus esculentus
How it was run: as §3

[6] = tested on: catchweed bedstraw; assay: Test C pre-/postemergence test; assay type: in vivo, Galium aparine
How it was run: as §3

[7] = tested on: rice; assay: Test C flooded paddy test; assay type: in vivo, Oryza sativa; conditions: Flood
How it was run: as §1

[8] = tested on: morningglory; assay: Test C pre-/postemergence test; assay type: in vivo, Ipomoea coccinea
How it was run: as §3

[9] = tested on: downy brome; assay: Test C pre-/postemergence test; assay type: in vivo, Bromus tectorum
How it was run: as §3

[10] = tested on: wheat; assay: Test A pre-/postemergence greenhouse test; assay type: in vivo, Triticum aestivum; conditions: for Wheat plant response rating: 0 to 100 scale
How it was run: as §2

[11] = tested on: johnsongrass; assay: Test C pre-/postemergence test; assay type: in vivo, Sorghum halepense
How it was run: as §3

[12] = tested on: velvetleaf; assay: Test C pre-/postemergence test; assay type: in vivo, Abutilon theophrasti
How it was run: as §3

[13] = tested on: wheat; assay: Test C pre-/postemergence test; assay type: in vivo, Triticum aestivum
How it was run: as §3

[14] = tested on: corn; assay: Test C pre-/postemergence test; assay type: in vivo, Zea mays
How it was run: as §3

[15] = tested on: wild oat; assay: Test C pre-/postemergence test; assay type: in vivo, Avena fatua
How it was run: as §3

[16] = tested on: eastern black nightshade; assay: Test C pre-/postemergence test; assay type: in vivo, Solanum ptycanthum
How it was run: as §3

[17] = tested on: woolly cupgrass; assay: Test C pre-/postemergence test; assay type: in vivo, Eriochloa villosa
How it was run: as §3

[18] = 31 g ai/ha, scale 0 to 100 (0 no effect, 100 complete control)
[19] = 62 g ai/ha, scale 0 to 100, 0 no effect, 100 complete control, 13 to 15 days
[20] = 125 g ai/ha, scale 0 to 100, 0 no effect, 100 complete control, 13 to 15 days
[21] = 250 g ai/ha, scale 0 to 100, 0 no effect, 100 complete control, 13 to 15 days
[22] = Postemergence, 125 g ai/ha, 0 is no effect, 100 is complete control
[23] = Postemergence, 500 g ai/ha, 0 is no effect, 100 is complete control
[24] = Preemergence, 125 g ai/ha, 0 no effect, 100 complete control
[25] = Preemergence, 500 g ai/ha, 0 to 100 scale where 0 is no effect and 100 is complete control
[26] = 62 g ai/ha, Preemergence, scale 0 to 100
[27] = 125 g ai/ha, preemergence, scale 0 (no effect) to 100 (complete control)
[28] = Preemergence, 31 g ai/ha, scale 0 to 100 (0 no effect, 100 complete control)
[29] = preemergence, 250 g ai/ha, scale 0 (no effect) to 100 (complete control)

## Cn1nc(C(F)(F)F)c(C[S+]([O-])c2cc(F)cc[n+]2[O-])c1Cl (racemic) [Compound 42]
[1]; [18]
  Plant response rating, Ducksalad: 70
[1]; [19]
  Plant response rating, Ducksalad: 85
[1]; [20]
  Plant response rating, Ducksalad: 85
[1]; [21]
  Plant response rating, Ducksalad: 90
[2]; [22]
  Velvetleaf plant response rating: 0
[2]; [23]
  Velvetleaf plant response rating: 60
[2]; [24]
  Velvetleaf plant response rating: 10
[2]; [25]
  Plant response rating, Velvetleaf: 80
[3]; [22]
  Pigweed plant response rating: 60
[3]; [23]
  Pigweed plant response rating: 70
[3]; [24]
  Pigweed plant response rating: 100
[3]; [25]
  Plant response rating, Pigweed: 100
[4]; [26]
  Foxtail, Giant plant response rating: 100
[4]; [27]
  Foxtail, Giant plant response rating: 100
[4]; [28]
  Plant response rating, Foxtail, Giant: 98
[4]; [29]
  Foxtail, Giant plant response rating: 100
[5]; [26]
  Nutsedge, Yellow plant response rating: 60
[5]; [27]
  Nutsedge, Yellow plant response rating: 85
[5]; [28]
  Plant response rating, Nutsedge, Yellow: 0
[5]; [29]
  Nutsedge, Yellow plant response rating: 95
[6]; [26]
  Galium plant response rating: 50
[6]; [27]
  Galium plant response rating: 100
[6]; [28]
  Plant response rating, Galium: 0
[6]; [29]
  Galium plant response rating: 100
[7]; [18]
  Plant response rating, Rice: 0
[7]; [19]
  Plant response rating, Rice: 15
[7]; [20]
  Plant response rating, Rice: 25
[7]; [21]
  Plant response rating, Rice: 70
[8]; [26]
  Morningglory plant response rating: 50
[8]; [27]
  Morningglory plant response rating: 50
[8]; [28]
  Plant response rating, Morningglory: 0
[8]; [29]
  Morningglory plant response rating: 90
[9]; [26]
  Bromegrass, Downy plant response rating: 15
[9]; [27]
  Bromegrass, Downy plant response rating: 45
[9]; [28]
  Plant response rating, Bromegrass, Downy: 10
[9]; [29]
  Bromegrass, Downy plant response rating: 70
[10]; [22]
  Wheat plant response rating: 40
[10]; [23]
  Wheat plant response rating: 50
[10]; [24]
  Wheat plant response rating: 20
[10]; [25]
  Plant response rating, Wheat: 60
[11]; [26]
  Johnsongrass plant response rating: 98
[11]; [27]
  Johnsongrass plant response rating: 100
[11]; [28]
  Plant response rating, Johnsongrass: 55
[11]; [29]
  Johnsongrass plant response rating: 100
[12]; [26]
  Velvetleaf plant response rating: 60
[12]; [27]
  Velvetleaf plant response rating: 70
[12]; [28]
  Plant response rating, Velvetleaf: 0
[12]; [29]
  Velvetleaf plant response rating: 100
[13]; [26]
  Wheat plant response rating: 0
[13]; [27]
  Wheat plant response rating: 10
[13]; [28]
  Plant response rating, Wheat: 0
[13]; [29]
  Wheat plant response rating: 70
[14]; [26]
  Corn plant response rating: 25
[14]; [27]
  Corn plant response rating: 60
[14]; [28]
  Plant response rating, Corn: 0
[14]; [29]
  Corn plant response rating: 80
[15]; [26]
  Oat, Wild plant response rating: 5
[15]; [27]
  Oat, Wild plant response rating: 50
[15]; [28]
  Plant response rating, Oat, Wild: 0
[15]; [29]
  Oat, Wild plant response rating: 90
[16]; [26]
  Nightshade plant response rating: 80
[16]; [27]
  Nightshade plant response rating: 100
[16]; [28]
  Plant response rating, Nightshade: 80
[16]; [29]
  Nightshade plant response rating: 100
[17]; [26]
  Cupgrass, Woolly plant response rating: 55
[17]; [27]
  Cupgrass, Woolly plant response rating: 85
[17]; [28]
  Plant response rating, Cupgrass, Woolly: 35
[17]; [29]
  Cupgrass, Woolly plant response rating: 90
